Test results: US10604512B2, “3-(1H-indol-2-yl)-1H-indazoles and therapeutic uses thereof” (Samumed, LLC, priority 2015, dated 2020)
pEC50: −log10 of the molar value.

How the values were obtained:
Format in all cases: cell-based
[1] = system: Wnt activity (Sp5-Luc reporter, TCF/LEF binding sites) in SW480 colon carcinoma cells; assay: Screening assay for Wnt activity: Sp5-Luc reporter gene assay in stably transduced SW480 colon carcinoma cells; conditions: Homo sapiens; for pEC50: overnight incubation, 10-point curve from 10 μM; for inhibition at 10 µM: given where EC50 >10 μM, read-out: percent inhibition at 10 μM
In short: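 SW480 cells stably transduced with a luciferase reporter driven by an Sp5 promoter of eight TCF/LEF sites were plated at 4,000 cells/well in 1% FBS medium. They were exposed overnight at 37° C to a 10-point 1:3 dilution series from 10 μM (0.1% DMSO). Luminescence was normalized to DMSO for four-parameter EC50, or percent inhibition at 10 μM.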

SW480 colon cancer cells = assay: Cell viability assay (CellTiter-Blue) in SW480 colon cancer cells; conditions: Homo sapiens, 96 h, four days; for pEC50: CellTiter-Blue; for inhibition at 10 µM: given where EC50 >10 μM, read-out: percent inhibition at 10 μM
In short: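 SW480 cells (~2×10^3 per well) were exposed to compound for four days at 37 °C/5% CO2, using 8-point 1:3 dilutions from 10 μM to 0.0045 μM in duplicate. Viability was read by resazurin reduction (CellTiter-Blue, ~3 h, Ex 560/Em 590 nm). EC50 came from non-linear regression; above 10 μM, percent inhibition at 10 μM is given.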

IL-6 = assay: Inhibition of IL-6 in LPS-stimulated THP-1 human monocyte cells (HTRF); conditions: for pEC50: IL-6 inhibition, LPS-stimulated THP-1 cells, HTRF; for inhibition at 10 µM: THP-1, printed beside >10 μM EC50, top concentration 10 μM, meaning not given, read-out: percentage in parentheses after EC50 >10
In short: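 THP-1 cells serum-reduced (1% FBS, 24 h), then 5000 cells/well preincubated 2 h with compound (10-point 1:3 series from 10 μM, 0.1% DMSO) before 500 ng/mL LPS for 22 h at 37 °C. Secreted IL-6 quantified by HTRF 665/620 ratio; DMSO-normalised duplicates fitted to four-parameter EC50; above 10 μM, % inhibition at 10 μM given.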

pEC50 [1]	pEC50 (SW480 colon cancer cells)	pEC50 (IL-6)	Compound	inhibition at 10 µM (IL-6) [%]	inhibition at 10 µM (SW480 colon cancer cells) [%]	inhibition at 10 µM [1] [%]
6.22	5.02	< 5.00	CCCC(=O)Nc1cncc(-c2ccc3[nH]nc(-c4cc5c(-c6ccncc6)cccc5[nH]4)c3c2)c1 [Compound 129, N-(5-(3-(4-(Pyridin-4-yl)-1H-indol-2-yl)-1H-indazol-5-yl)pyridin-3-yl) butyramide]	33.4	–	–
6.38	< 5.00	< 5.00	CC(C)CC(=O)Nc1cncc(-c2ccc3[nH]nc(-c4cc5c(-c6ccc(F)cc6)cccc5[nH]4)c3c2)c1 [Compound 30, N-(5-(3-(4-(4-Fluorophenyl)-1H-indol-2-yl)-1H-indazol-5-yl)pyridin-3-yl)-3-methylbutanamide]	27.9	38.2	–
< 5.00	< 5.00	< 5.00	O=C(Cc1ccccc1)Nc1cncc(-c2ccc3[nH]nc(-c4cc5c(-c6ccncc6)cccc5[nH]4)c3c2)c1 [Compound 122, 2-Phenyl-N-(5-(3-(4-(pyridin-4-yl)-1H-indol-2-yl)-1H-indazol-5-yl)pyridin-3-yl)acetamide]	29.6	7.8	45.5
5.94	< 5.00	< 5.00	CC(C)(C)CC(=O)Nc1cncc(-c2ccc3[nH]nc(-c4cc5c(-c6ccc(F)cc6)cccc5[nH]4)c3c2)c1 [Compound 44, N-(5-(3-(4-(4-Fluorophenyl)-1H-indol-2-yl)-1H-indazol-5-yl)pyridin-3-yl)-3,3-dimethylbutanamide]	47.9	23.1	–
7.19	6.32	6.69	CCC(=O)Nc1cncc(-c2ccc3[nH]nc(-c4cc5c(-c6cccnc6)cccc5[nH]4)c3c2)c1 [Compound 85, N-(5-(3-(4-(Pyridin-3-yl)-1H-indol-2-yl)-1H-indazol-5-yl)pyridin-3-yl) propionamide]	–	–	–

Continued, compound first:

Compound	pEC50 [1]	pEC50 (SW480 colon cancer cells)	pEC50 (IL-6)	inhibition at 10 µM (IL-6) [%]	inhibition at 10 µM (SW480 colon cancer cells) [%]	inhibition at 10 µM [1] [%]
c1ccc2[nH]c(-c3n[nH]c4ccc(-c5cncc(CN6CCCC6)c5)cc34)cc2c1 [Compound 266, 3-(1H-Indol-2-yl)-5-(5-(pyrrolidin-1-ylmethyl)pyridin-3-yl)-1H-indazole]	6.44	5.98	6.63	–	–	–
c1cncc(-c2ccc3[nH]nc(-c4cc5c(-c6cccs6)cccc5[nH]4)c3c2)c1 [Compound 340, 5-(Pyridin-3-yl)-3-(4-(thiophen-2-yl)-1H-indol-2-yl)-1H-indazole]	7.13	6.43	7.74	–	–	–
c1cncc(-c2cccc3[nH]c(-c4n[nH]c5ccc(-c6cncnc6)cc45)cc23)c1 [Compound 111, 3-(4-(Pyridin-3-yl)-1H-indol-2-yl)-5-(pyrimidin-5-yl)-1H-indazole]	6.00	5.01	5.51	–	–	–
CN1CCN(c2cccc3[nH]c(-c4n[nH]c5ccc(-c6cncc(NC(=O)CC7CCNCC7)c6)cc45)cc23)CC1 [Compound 669, N-(5-(3-(4-(4-Methylpiperazin-1-yl)-1H-indol-2-yl)-1H-indazol-5-yl)pyridin-3-yl)-2-(piperidin-4-yl)acetamide]	< 5.00	< 5.00	< 5.00	25.3	12.2	11.7
c1csc(-c2cccc3[nH]c(-c4n[nH]c5ccc(-c6ccncc6)cc45)cc23)c1 [Compound 354, 5-(pyridin-4-yl)-3-(4-(thiophen-2-yl)-1H-indol-2-yl)-1H-indazole]	5.31	5.05	6.82	–	–	–
Fc1cccc(-c2cccc3[nH]c(-c4n[nH]c5ccc(-c6cccnc6)cc45)cc23)c1 [Compound 4, 3-(4-(3-Fluorophenyl)-1H-indol-2-yl)-5-(pyridin-3-yl)-1H-indazole]	6.56	< 5.00	7.24	–	3.7	–
